Test results taken from the supplement of paper PMC8671470.

The compounds below were run on KCL-22. Conditions: 72 h.
Outline: (§1)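 Seeded in RPMI 1640 at densities within the linear growth range, fifteen myeloid leukaemia cell lines were dispensed into 384-well plates with acoustically pre-printed compounds spanning five tenfold doses from 1 to 10,000 nM, in duplicate. The plates were kept for 72 h at 37 °C in 5% CO2 before luminescent ATP viability was measured and normalised to vehicle and to a positive control at 10 µM. Curves were fitted with a four-parameter log-logistic model. The IC50 was taken from those curves.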

Row | Compound | IC50 (cell viability) [µM]
1 | CC(=O)N[C@@H](CS)C(=O)O [Acetylcysteine] | > 10
2 | CCCCC/C=C\C/C=C\C/C=C\C/C=C\CCCC(=O)C(F)(F)F [Arachidonyl trifluoromethyl ketone] | > 10
3 | O=[As]O[As]=O (centres undefined) [Arsenic trioxide] | > 10

What follows are compounds tested on Mono-Mac-6. Conditions: 72 h.
Outline: as §1

Row | Compound | IC50 (cell viability) [µM]
4 | CC(=O)N1CCN(c2ccc(OC[C@@H]3CO[C@@](Cn4ccnc4)(c4ccc(Cl)cc4Cl)O3)cc2)CC1 (racemic) [Ketoconazole] | > 10
5 | CCC(CC#N)OC(=O)N[C@@H](C)c1cccc(NC(=O)Nc2ccc(-c3cnco3)c(OC)c2)c1 (stereo in doubt) [AVN-944] | 0.151
6 | OC[C@H]1OC(O)C[C@@H](O)[C@@H]1O (some centres undefined) [2-deoxyglucose] | > 10
7 | O=C(C(=O)c1ccc(Br)cc1)c1ccc(Br)cc1 [4,4'-Dibromobenzil] | > 10
8 | NS(=O)(=O)c1ccc(NC(=O)Cc2ccccc2)cc1 [4-(2-Phenylacetamido)Benzenesulfonamide] | > 10
9 | NCc1ccc(S(N)(=O)=O)cc1 [4-Homosulfanilamide] | > 10
10 | Oc1ncc(F)c(O)n1 [5-fluorouracil] | 0.711
11 | NCc1ccc(-c2cccnc2)s1 [(5-Pyrid-3-YLTHIEN-2-YL)METHYLAMINE] | > 10
12 | CC(=O)N[C@@H](CS)C(=O)O [Acetylcysteine] | > 10
13 | CCCCC/C=C\C/C=C\C/C=C\C/C=C\CCCC(=O)C(F)(F)F [Arachidonyl trifluoromethyl ketone] | 7.99
14 | O=[As]O[As]=O (centres undefined) [Arsenic trioxide] | 8.74

Each compound was assayed on LAMA-84. Conditions: 72 h.
Outline: as §1

Row | Compound | IC50 (cell viability) [µM]
15 | CC(=O)N1CCN(c2ccc(OC[C@@H]3CO[C@@](Cn4ccnc4)(c4ccc(Cl)cc4Cl)O3)cc2)CC1 (racemic) [Ketoconazole] | > 10
16 | CCC(CC#N)OC(=O)N[C@@H](C)c1cccc(NC(=O)Nc2ccc(-c3cnco3)c(OC)c2)c1 (stereo in doubt) [AVN-944] | 0.0736
17 | OC[C@H]1OC(O)C[C@@H](O)[C@@H]1O (some centres undefined) [2-deoxyglucose] | > 10
18 | O=C(C(=O)c1ccc(Br)cc1)c1ccc(Br)cc1 [4,4'-Dibromobenzil] | > 10
19 | NS(=O)(=O)c1ccc(NC(=O)Cc2ccccc2)cc1 [4-(2-Phenylacetamido)Benzenesulfonamide] | > 10
20 | NCc1ccc(S(N)(=O)=O)cc1 [4-Homosulfanilamide] | > 10
21 | Oc1ncc(F)c(O)n1 [5-fluorouracil] | 6.31
22 | NCc1ccc(-c2cccnc2)s1 [(5-Pyrid-3-YLTHIEN-2-YL)METHYLAMINE] | > 10
23 | CC(=O)N[C@@H](CS)C(=O)O [Acetylcysteine] | > 10
24 | CCCCC/C=C\C/C=C\C/C=C\C/C=C\CCCC(=O)C(F)(F)F [Arachidonyl trifluoromethyl ketone] | > 10
25 | O=[As]O[As]=O (centres undefined) [Arsenic trioxide] | 7.24

The compounds below were run on KU-812. Conditions: 72 h.
Outline: as §1

Row | Compound | IC50 (cell viability) [µM]
26 | CC(=O)N1CCN(c2ccc(OC[C@@H]3CO[C@@](Cn4ccnc4)(c4ccc(Cl)cc4Cl)O3)cc2)CC1 (racemic) [Ketoconazole] | > 10
27 | CCC(CC#N)OC(=O)N[C@@H](C)c1cccc(NC(=O)Nc2ccc(-c3cnco3)c(OC)c2)c1 (stereo in doubt) [AVN-944] | 0.0949
28 | OC[C@H]1OC(O)C[C@@H](O)[C@@H]1O (some centres undefined) [2-deoxyglucose] | > 10
29 | O=C(C(=O)c1ccc(Br)cc1)c1ccc(Br)cc1 [4,4'-Dibromobenzil] | > 10
30 | NS(=O)(=O)c1ccc(NC(=O)Cc2ccccc2)cc1 [4-(2-Phenylacetamido)Benzenesulfonamide] | > 10
31 | NCc1ccc(S(N)(=O)=O)cc1 [4-Homosulfanilamide] | > 10
32 | Oc1ncc(F)c(O)n1 [5-fluorouracil] | > 10
33 | NCc1ccc(-c2cccnc2)s1 [(5-Pyrid-3-YLTHIEN-2-YL)METHYLAMINE] | > 10
34 | CC(=O)N[C@@H](CS)C(=O)O [Acetylcysteine] | > 10
35 | CCCCC/C=C\C/C=C\C/C=C\C/C=C\CCCC(=O)C(F)(F)F [Arachidonyl trifluoromethyl ketone] | > 10
36 | O=[As]O[As]=O (centres undefined) [Arsenic trioxide] | > 10

Each compound was assayed on HL-60. Conditions: 72 h.
Outline: as §1

Row | Compound | IC50 (cell viability) [µM]
37 | CC(=O)N1CCN(c2ccc(OC[C@@H]3CO[C@@](Cn4ccnc4)(c4ccc(Cl)cc4Cl)O3)cc2)CC1 (racemic) [Ketoconazole] | > 10
38 | CCC(CC#N)OC(=O)N[C@@H](C)c1cccc(NC(=O)Nc2ccc(-c3cnco3)c(OC)c2)c1 (stereo in doubt) [AVN-944] | 0.182
39 | OC[C@H]1OC(O)C[C@@H](O)[C@@H]1O (some centres undefined) [2-deoxyglucose] | > 10
40 | O=C(C(=O)c1ccc(Br)cc1)c1ccc(Br)cc1 [4,4'-Dibromobenzil] | > 10
41 | NS(=O)(=O)c1ccc(NC(=O)Cc2ccccc2)cc1 [4-(2-Phenylacetamido)Benzenesulfonamide] | > 10
42 | NCc1ccc(S(N)(=O)=O)cc1 [4-Homosulfanilamide] | > 10
43 | Oc1ncc(F)c(O)n1 [5-fluorouracil] | 1.07
44 | NCc1ccc(-c2cccnc2)s1 [(5-Pyrid-3-YLTHIEN-2-YL)METHYLAMINE] | > 10
45 | CC(=O)N[C@@H](CS)C(=O)O [Acetylcysteine] | > 10
46 | CCCCC/C=C\C/C=C\C/C=C\C/C=C\CCCC(=O)C(F)(F)F [Arachidonyl trifluoromethyl ketone] | > 10
47 | O=[As]O[As]=O (centres undefined) [Arsenic trioxide] | 8.69

Each compound was assayed on K-562. Conditions: 72 h.
Outline: as §1

Row | Compound | IC50 (cell viability) [µM]
48 | CC(=O)N1CCN(c2ccc(OC[C@@H]3CO[C@@](Cn4ccnc4)(c4ccc(Cl)cc4Cl)O3)cc2)CC1 (racemic) [Ketoconazole] | > 10
49 | CCC(CC#N)OC(=O)N[C@@H](C)c1cccc(NC(=O)Nc2ccc(-c3cnco3)c(OC)c2)c1 (stereo in doubt) [AVN-944] | 0.0558
50 | OC[C@H]1OC(O)C[C@@H](O)[C@@H]1O (some centres undefined) [2-deoxyglucose] | > 10
51 | O=C(C(=O)c1ccc(Br)cc1)c1ccc(Br)cc1 [4,4'-Dibromobenzil] | > 10
52 | NS(=O)(=O)c1ccc(NC(=O)Cc2ccccc2)cc1 [4-(2-Phenylacetamido)Benzenesulfonamide] | > 10
53 | NCc1ccc(S(N)(=O)=O)cc1 [4-Homosulfanilamide] | > 10
54 | Oc1ncc(F)c(O)n1 [5-fluorouracil] | > 10
55 | NCc1ccc(-c2cccnc2)s1 [(5-Pyrid-3-YLTHIEN-2-YL)METHYLAMINE] | > 10
56 | CC(=O)N[C@@H](CS)C(=O)O [Acetylcysteine] | > 10
57 | CCCCC/C=C\C/C=C\C/C=C\C/C=C\CCCC(=O)C(F)(F)F [Arachidonyl trifluoromethyl ketone] | > 10
58 | O=[As]O[As]=O (centres undefined) [Arsenic trioxide] | > 10

These compounds were tested on BV-173. Conditions: 72 h.
Outline: as §1

Row | Compound | IC50 (cell viability) [µM]
59 | CC(=O)N1CCN(c2ccc(OC[C@@H]3CO[C@@](Cn4ccnc4)(c4ccc(Cl)cc4Cl)O3)cc2)CC1 (racemic) [Ketoconazole] | > 10
60 | CCC(CC#N)OC(=O)N[C@@H](C)c1cccc(NC(=O)Nc2ccc(-c3cnco3)c(OC)c2)c1 (stereo in doubt) [AVN-944] | 0.118
61 | OC[C@H]1OC(O)C[C@@H](O)[C@@H]1O (some centres undefined) [2-deoxyglucose] | > 10
62 | O=C(C(=O)c1ccc(Br)cc1)c1ccc(Br)cc1 [4,4'-Dibromobenzil] | > 10
63 | NS(=O)(=O)c1ccc(NC(=O)Cc2ccccc2)cc1 [4-(2-Phenylacetamido)Benzenesulfonamide] | > 10
64 | NCc1ccc(S(N)(=O)=O)cc1 [4-Homosulfanilamide] | > 10
